# Results from patent publication US10994016B2, “Graphene oxide mediated cellular delivery of gadolinium-labeled molecules” (Northwestern University, priority 2015, dated 2021).
# Test system: HeLa cells
# Experiment: Cellular delivery studies with and without GO co-incubation, HeLa
# Format: cell-based
# Experimental: ICP-MS Samples were prepared in 15-mL conical tubes by adding ACS reagent grade nitric acid (70%), followed by incubation at 70° C. overnight to allow for complete sample digestion. The effectiveness of this digestion protocol was previously validated for GO. After incubation, a multi-element internal standard (containing Bi, Ho, In, Li, Sc, Tb, and Y, Inorganic Ventures, Christiansburg, Va.) and milli-Q water (18.2 MΩ·cm) were added to produce a final sample of 3% (v/v) nitric acid and 5 ng/mL internal standard.
# ICP-MS was performed on a computer-controlled (Plasmalab software) Thermo X series II ICP-MS (Thermo Fisher Scientific, Waltham, Mass., USA) operating in standard mode equipped with an ESI SC-2 autosampler (Omaha, Nebr., USA). Each sample was acquired using 1 survey run (10 sweeps) and 3 main (peak jumping) runs (100 sweeps). The isotopes selected for analysis were Gd with In and Ho isotopes selected as internal standards for data interpolation. Instrument performance is optimized daily through an autotune followed by verification via a performance report (passing manufacturer specifications). Instrument calibration was accomplished by preparing individual-element Gd standards (Inorganic Ventures, Christiansburg, Va., USA) using concentrations of 0.78125, 1.5625, 3.125, 6.25, 12.50, 25.00, 50.00, 100.0, and 200.0 ng/mL containing 3.0% nitric acid (v/v) and 5.0 ng/mL of multi-element internal standard.
# Dulbecco's modified phosphate buffered saline (DPBS), media, and dissociation reagents were purchased from Life Technologies (Carlsbad, Calif.). CorningBrand® cell culture consumables (flasks, plates, etc.) and sera were purchased from VWR Scientific (Radnor, Pa.). HeLa cells (ATCC® CCL-2™) and KB cells (ATCC® CCL-17™) were purchased from the American Type Culture Collection (ATCC, Manassas, Va.) and cultured in phenol red-free minimum essential media (MEM) supplemented with 10% fetal bovine serum (FBS). Prior to all experiments, cells were plated and allowed to incubate for 24 hours before dosing. Cells were harvested with 0.25% TrypLE for 5 minutes at 37° C. in a 5.0% CO2 incubator. For sterilization, all Gd(III)-labeled molecules were filtered with 0.2 μm sterile filters prior to concentration determination and storage at 4° C. GO was used as prepared without further sterilization. […] Cells were grown in a humidified incubator operating at 37° C. and 5.0% CO2.
# Cell counting was conducted using a Guava EasyCyte Mini Personal Cell Analyzer (EMD Millipore, Billerica, Mass.). After cell harvesting, an aliquot (50 μL) of the cell suspensions was mixed with Guava ViaCount reagent (150 μL) and allowed to stain at room temperature for at least 5 minutes. The dilution factor of 4 was determined based upon optimum machine performance (20-150 cells/μL). After vortexing for 10 sec, stained cells were counted using a Guava EasyCyte Mini Personal Cell Analyzer (PCA) using the ViaCount software module. For each sample, 1000 events were acquired. Gating of live/dead and cell/debris classifications were performed manually by the operator.
# Cellular delivery studies were performed with HeLa and KB cells. HeLa and KB were plated at a cell density of approximately 25,000 and 50,000 cells per well, respectively, in a 24-well plate as counted by a hemocytometer. Stock solutions of 1-14 (1 mM), 150 nm GO (100 μg/mL), and 1500 nm GO (100 μg/mL) were prepared using sterile Milli-Q water. Prior to dosing, 80 μL ([…]) of each GO (150 nm and 1500 nm) and 80 μL (80 nmol) of each Gd(III)-labeled molecule (1-14) were mixed and allowed to adsorb for at least 15 minutes. 150 μL Gd(III)-GO solutions were added to 250 μL media to give a final concentration of 188 μM Gd and 18.8 μg/mL GO. Cells were incubated with the mixture of Gd(III)-labeled molecules and GO for […]. To harvest, cells were rinsed in-plate three times with 500 μL PBS and trypsinized using 100 μL 0.25% TrypLE. […]
substance,measurement,setting,value
Diethylenetriaminepentaacetic acid gadolinium(III) dihydrogen salt hydrate [Molecule 11],Enhancement by GO,"35 mM Magnevist, 20 μg/mL GO, 24-well plates",3.3 ×
same,Enhancement by GO,6-well plates,3.1 ×
same,Delivery enhancement without adsorption time,"150 nm GO, mixture added directly to media",abolished
same,Delivery enhancement without adsorption time,"1500 nm GO, 188 μM Gd(III), 18.8 μg/mL GO",same result
same,Magnevist uptake,"with GO, 35 mM Magnevist, 20 μg/mL GO (150 nm), 17 trials",515±319 fmol Gd/cell
same,Typical cellular Gd(III) content,"with GO, 35 mM Magnevist, 20 μg/mL GO, 24-well plates, N=11",299±67 fmol/cell
same,Loading (cellular Gd(III) content),"with GO, 6-well plates, N=13",151±56 fmol/cell
same,Magnevist uptake,"without GO, 35 mM Magnevist, 10 trials",115±32 fmol Gd/cell
same,Typical cellular Gd(III) content,"without GO, 35 mM Magnevist, 24-well plates, N=4",91±9 fmol/cell
same,Loading (cellular Gd(III) content),"without GO, 6-well plates, N=4",49±19 fmol/cell
